{
  "source": "paper PMC2799460",
  "about": "(Environmental Health Perspectives, 2009)",
  "key": {"[1]": {"biological_target": "T1, human soluble epoxide hydrolase (sEH) (Homo sapiens, UniProt P34913)", "T1 construct": "made in house; host or cells: baculovirus expression system", "T1 sequence (P34913 1-555)": "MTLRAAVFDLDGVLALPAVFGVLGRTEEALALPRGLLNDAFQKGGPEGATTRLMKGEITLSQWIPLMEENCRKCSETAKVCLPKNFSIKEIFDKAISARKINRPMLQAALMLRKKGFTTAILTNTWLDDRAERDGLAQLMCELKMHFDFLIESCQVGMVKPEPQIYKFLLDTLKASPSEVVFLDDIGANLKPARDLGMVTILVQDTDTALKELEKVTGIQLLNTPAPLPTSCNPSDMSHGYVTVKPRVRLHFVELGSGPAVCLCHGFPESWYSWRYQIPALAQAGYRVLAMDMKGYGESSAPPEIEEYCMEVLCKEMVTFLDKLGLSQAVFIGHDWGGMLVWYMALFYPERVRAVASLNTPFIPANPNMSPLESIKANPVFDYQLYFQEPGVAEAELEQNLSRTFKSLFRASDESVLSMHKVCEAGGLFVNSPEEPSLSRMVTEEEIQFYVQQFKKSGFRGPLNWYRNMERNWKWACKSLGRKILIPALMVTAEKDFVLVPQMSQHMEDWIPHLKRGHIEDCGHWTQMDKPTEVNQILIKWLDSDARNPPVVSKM", "test": "human sEH enzyme inhibition assay (CMNPC substrate, fluorescence kinetic)", "assay_type": "biochemical", "details": "recombinant purified enzyme, CMNPC 5 μM, counterscreen; mean ± SD", "from_the_text": "(§1) Recombinant human soluble epoxide hydrolase (sEH) was produced in a baculovirus expression system ([Beetham et al. 1993]) and purified by affinity chromatography ([Wixtrom et al. 1988]). […] The CESs were partially purified as previously described ([Nishi et al. 2006]), whereas microsomal preparations were used for FAAH and PON2 ([Huang et al. 2007]). Human liver cytosol and microsome extracts were obtained from BD Biosciences (San Jose, CA). Protein concentration was quantified using the Pierce BCA (bicinchoninic acid) assay (Pierce, Rockford, IL) using bovine serum albumin (BSA) as the calibrating standard.\n(§2) Although the conditions for each enzyme assay were different (for details, see Table 1), the enzymatic assays were all run in a similar format. Enzymes were used at a concentration that results in linear generation of product with increasing time and protein concentration, as well as yielding a signal that was 3–20 times greater than the background. […]\n(§3) For counterscreening, fresh solutions of all positive compounds were prepared in DMSO. […] IC50 values were calculated by nonlinear regression of at least five data points using SigmaPlot, version 9.01 (Systat Software Inc., Chicago, IL). […] Similarly, half-maximal effective concentration (EC50) values for agonists of the AhR and ER bioassays were determined, and the results are presented as the mean of triplicate analysis. […]"}, "[2]": {"biological_target": "T2, human carboxylesterase CES1 (Homo sapiens, UniProt P23141)", "T2 construct": "made in house; host or cells: baculovirus-insect cells", "T2 sequence (P23141 18-567)": "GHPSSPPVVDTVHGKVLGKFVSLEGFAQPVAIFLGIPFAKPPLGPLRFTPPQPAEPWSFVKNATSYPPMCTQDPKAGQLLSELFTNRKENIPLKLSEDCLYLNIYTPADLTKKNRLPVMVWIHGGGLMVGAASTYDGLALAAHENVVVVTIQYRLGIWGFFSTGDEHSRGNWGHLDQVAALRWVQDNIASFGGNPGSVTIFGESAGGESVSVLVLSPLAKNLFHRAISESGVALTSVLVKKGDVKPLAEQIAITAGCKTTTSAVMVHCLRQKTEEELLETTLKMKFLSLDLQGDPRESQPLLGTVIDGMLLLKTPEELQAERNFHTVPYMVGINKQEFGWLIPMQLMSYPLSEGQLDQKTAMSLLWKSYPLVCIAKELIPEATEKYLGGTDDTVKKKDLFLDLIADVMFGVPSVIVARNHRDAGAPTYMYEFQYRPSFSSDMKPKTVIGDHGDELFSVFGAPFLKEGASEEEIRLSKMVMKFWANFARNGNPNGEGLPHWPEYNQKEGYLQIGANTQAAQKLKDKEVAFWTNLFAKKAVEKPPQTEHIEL", "test": "biochemical"}, "[3]": {"biological_target": "T3, aryl hydrocarbon receptor (AhR) (Mus musculus, UniProt P30561)", "T3 sequence (P30561 10-848)": "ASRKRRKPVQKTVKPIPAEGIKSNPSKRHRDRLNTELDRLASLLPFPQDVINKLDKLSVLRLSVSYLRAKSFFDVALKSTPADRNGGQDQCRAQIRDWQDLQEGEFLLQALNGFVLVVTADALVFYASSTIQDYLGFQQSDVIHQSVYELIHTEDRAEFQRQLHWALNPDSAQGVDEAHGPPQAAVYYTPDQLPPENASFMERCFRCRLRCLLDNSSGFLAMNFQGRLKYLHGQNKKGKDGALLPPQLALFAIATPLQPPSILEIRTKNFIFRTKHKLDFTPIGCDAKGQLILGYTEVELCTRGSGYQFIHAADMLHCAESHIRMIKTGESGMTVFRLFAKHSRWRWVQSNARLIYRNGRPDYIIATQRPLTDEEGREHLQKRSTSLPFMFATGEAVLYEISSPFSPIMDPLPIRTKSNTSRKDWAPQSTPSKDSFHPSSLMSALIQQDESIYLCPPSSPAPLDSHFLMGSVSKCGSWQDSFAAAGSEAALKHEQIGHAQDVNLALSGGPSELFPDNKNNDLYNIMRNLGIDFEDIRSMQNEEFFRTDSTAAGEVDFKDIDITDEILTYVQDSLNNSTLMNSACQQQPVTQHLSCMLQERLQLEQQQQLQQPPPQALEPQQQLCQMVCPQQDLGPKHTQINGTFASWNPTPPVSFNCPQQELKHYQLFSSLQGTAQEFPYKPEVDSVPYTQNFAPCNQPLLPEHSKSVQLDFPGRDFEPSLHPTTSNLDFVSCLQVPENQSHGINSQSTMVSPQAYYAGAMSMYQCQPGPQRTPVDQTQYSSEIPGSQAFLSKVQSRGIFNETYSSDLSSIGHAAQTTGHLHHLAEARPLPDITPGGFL", "test": "cell-based"}, "CYP450 2C9 [4]": {"biological_target": "T4, CYP450 2C9 (Homo sapiens, UniProt P11712)", "T4 sequence (P11712 whole entry)": "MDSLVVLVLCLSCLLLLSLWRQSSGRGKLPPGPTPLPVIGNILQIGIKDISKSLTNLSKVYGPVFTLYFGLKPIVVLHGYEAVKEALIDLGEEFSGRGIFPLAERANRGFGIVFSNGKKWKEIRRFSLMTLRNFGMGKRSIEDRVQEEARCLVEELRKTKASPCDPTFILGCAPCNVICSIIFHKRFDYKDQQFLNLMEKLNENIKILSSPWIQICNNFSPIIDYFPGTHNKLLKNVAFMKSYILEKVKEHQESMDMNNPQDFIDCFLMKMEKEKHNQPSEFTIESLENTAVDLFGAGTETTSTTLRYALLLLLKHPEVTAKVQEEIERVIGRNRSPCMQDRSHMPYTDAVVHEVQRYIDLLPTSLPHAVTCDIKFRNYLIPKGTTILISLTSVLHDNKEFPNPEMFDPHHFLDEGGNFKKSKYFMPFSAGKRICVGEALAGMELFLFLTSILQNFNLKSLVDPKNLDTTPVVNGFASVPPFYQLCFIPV", "test": "biochemical"}, "estrogen receptor (ER)": {"biological_target": "T5, estrogen receptor (ER) (Homo sapiens, UniProt P03372)", "T5 construct": "endogenous in cells; host or cells: BG1Luc4E2 (human ovarian cell line per title of Rogers and Denison 2000)", "T5 sequence (P03372 whole entry)": "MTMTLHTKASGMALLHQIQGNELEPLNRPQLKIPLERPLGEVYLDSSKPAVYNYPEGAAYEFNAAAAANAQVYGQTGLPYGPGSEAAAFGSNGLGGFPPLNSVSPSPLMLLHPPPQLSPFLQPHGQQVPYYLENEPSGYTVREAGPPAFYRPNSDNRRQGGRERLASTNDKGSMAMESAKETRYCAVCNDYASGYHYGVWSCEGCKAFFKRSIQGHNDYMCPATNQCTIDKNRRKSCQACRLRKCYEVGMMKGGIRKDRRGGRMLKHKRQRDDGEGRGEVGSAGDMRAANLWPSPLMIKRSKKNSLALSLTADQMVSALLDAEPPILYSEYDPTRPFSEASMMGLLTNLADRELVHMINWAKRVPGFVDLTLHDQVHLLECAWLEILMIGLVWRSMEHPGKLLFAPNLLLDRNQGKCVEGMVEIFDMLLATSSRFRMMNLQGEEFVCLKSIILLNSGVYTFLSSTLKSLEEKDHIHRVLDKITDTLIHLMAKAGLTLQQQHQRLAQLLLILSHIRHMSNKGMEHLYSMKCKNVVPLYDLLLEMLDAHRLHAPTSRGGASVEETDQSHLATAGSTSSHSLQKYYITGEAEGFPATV", "test": "ER CALUX luciferase reporter bioassay (BG1Luc4E2/ER-α-positive cells)", "assay_type": "cell-based", "details": "for EC50: agonist, ER CALUX luciferase induction"}, "[5]": {"biological_target": "T6, human carboxylesterase CES3 (Homo sapiens, UniProt Q6UWW8)", "T6 construct": "made in house; host or cells: baculovirus-insect cells", "T6 sequence (Q6UWW8 27-571)": "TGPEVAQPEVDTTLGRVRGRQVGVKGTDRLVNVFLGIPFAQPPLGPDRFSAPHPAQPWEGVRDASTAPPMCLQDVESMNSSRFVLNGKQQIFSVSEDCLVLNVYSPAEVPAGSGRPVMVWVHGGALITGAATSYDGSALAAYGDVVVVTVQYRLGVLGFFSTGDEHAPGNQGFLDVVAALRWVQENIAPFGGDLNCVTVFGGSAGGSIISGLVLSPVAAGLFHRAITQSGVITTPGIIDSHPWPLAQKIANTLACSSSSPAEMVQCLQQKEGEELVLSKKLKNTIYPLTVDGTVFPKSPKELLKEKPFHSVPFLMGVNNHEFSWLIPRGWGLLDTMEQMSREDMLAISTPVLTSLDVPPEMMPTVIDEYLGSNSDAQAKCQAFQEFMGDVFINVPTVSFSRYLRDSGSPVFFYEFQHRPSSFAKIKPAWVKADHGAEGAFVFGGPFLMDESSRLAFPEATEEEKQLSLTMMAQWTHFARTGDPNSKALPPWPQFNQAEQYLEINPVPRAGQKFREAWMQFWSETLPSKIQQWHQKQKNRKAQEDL", "test": "human CES3 enzyme inhibition assay (CMNA substrate)", "assay_type": "biochemical", "from_the_text": "as §1, §2, §3"}, "CYP450 2C9 [6]": {"biological_target": "T4, CYP450 2C9"}},
  "note": "Like-named read-outs stand apart in the source and are kept apart here.",
  "data": [
    {"compound": "CC1CCCCC1NC(=O)Nc1ccccc1", "note": "(stereo not drawn) [Siduron, siduron]", "values": [
      {"measurement": "IC50", "setting": "[1]", "value": "33 ± 3", "unit": "nM"}
    ]},
    {"compound": "O=C(Nc1ccc(Cl)cc1)Nc1ccc(Cl)c(Cl)c1", "note": "[TCC, trichlorocarbanilide]", "values": [
      {"measurement": "IC50", "setting": "[1]", "value": "13 ± 1", "unit": "nM"}
    ]},
    {"compound": "Oc1cc(Cl)ccc1Oc1ccc(Cl)cc1Cl", "note": "[Triclosan, triclosan]", "values": [
      {"measurement": "IC50", "setting": "[2]", "value": "210 ± 20", "unit": "nM"},
      {"measurement": "Ki", "setting": "[2]", "value": "105 ± 5", "unit": "nM"}
    ]},
    {"compound": "O=C1C(Cl)=C(Cl)C(=O)c2ccccc21", "note": "[Dichlone, dichlone]", "values": [
      {"measurement": "EC50", "setting": "[3]", "value": "> 10000", "unit": "nM"}
    ]},
    {"compound": "CCOP(=S)(OCC)Oc1nc(Cl)c(Cl)cc1Cl", "note": "[Chlorpyrifos, chlorpyrifos]", "values": [
      {"measurement": "IC50", "setting": "CYP450 2C9 [4]", "value": 3200, "unit": "nM"}
    ]},
    {"compound": "ClC(Cl)=C(c1ccc(Cl)cc1)c1ccccc1Cl", "note": "[o,p-DDE, dichlorodiphenyldichloroethylene]", "values": [
      {"measurement": "EC50", "setting": "estrogen receptor (ER)", "value": 1200, "unit": "nM"},
      {"measurement": "EC50 for ER induction, fold less potent than E2", "setting": "estrogen receptor (ER); relative to E2", "value": "approximately 10^5 fold"}
    ]},
    {"compound": "O=P(Oc1ccccc1)(Oc1ccccc1)Oc1ccccc1", "note": "[TPP, triphenyl phosphate]", "values": [
      {"measurement": "IC50", "setting": "[2]", "value": "43 ± 3", "unit": "nM"}
    ]},
    {"compound": "CCOP(=S)(OCC)SCSc1ccc(Cl)cc1", "note": "[Carbophenothion, carbophenothion]", "values": [
      {"measurement": "IC50", "setting": "[5]", "value": "110 ± 15", "unit": "nM"}
    ]},
    {"compound": "C/C=C/C(=O)Oc1c(C(C)CCCCCC)cc([N+](=O)[O-])cc1[N+](=O)[O-]", "note": "(stereo not drawn) [2-Methylheptyl-4,6-dinitrophenyl crotonate]", "values": [
      {"measurement": "IC50", "setting": "CYP450 2C9 [6]", "value": "120 ± 1", "unit": "nM"}
    ]},
    {"compound": "Pyrethrum", "values": [
      {"measurement": "IC50", "setting": "CYP450 2C9 [6]", "value": 2300, "unit": "nM"}
    ]},
    {"compound": "Clc1ccc(-c2nc3ccccc3s2)cc1", "note": "[CPB, 2-(4-chlorophenyl)-benzothiazole]", "values": [
      {"measurement": "EC50", "setting": "[3]", "value": 11400, "unit": "nM"}
    ]},
    {"compound": "ClC1=C(Cl)C2(Cl)C3C4CC(C5OC45)C3C1(Cl)C2(Cl)Cl", "note": "(stereo not drawn) [Endrin]", "values": [
      {"measurement": "EC50", "setting": "estrogen receptor (ER)", "value": 13000, "unit": "nM"}
    ]},
    {"compound": "CCOP(=S)(OCC)Oc1ccc([N+](=O)[O-])cc1", "note": "[Parathion, parathion]", "values": [
      {"measurement": "IC50", "setting": "[5]", "value": "4.9 ± 0.4", "unit": "nM"}
    ]}
  ]
}
